The values below come from patent US8597920B2, “Class of Chloroflexi-like thermophilic cellulose degrading bacteria” (priority 2008, dated 2013).

For test [1], the system named is Chloroflexus isolate T81. As to the kind of experiment: Growth on sole energy sources (metabolism experiments). Format: cell-based, thermophilic Chloroflexi-like bacteria. As to conditions: aerobic, 60° C.; for Growth of T81 on alcohol as sole energy source, FS3V: alcohol 0.05% v/v; for Growth of T81 on sole energy source, FS3V: FS3V medium (pH 4.5), energy source 0.5 g/L.

For test [2], the system named is Chloroflexus isolate T12. The test is described as above. It is filed as cell-based, thermophilic Chloroflexi-like bacteria. The note with it: for Growth of T12 on alcohol as sole energy source, FS3V: alcohol 0.05% v/v, aerobic, 60° C. The protocol: (§1) Mineral salts medium FS3V, FeEDTA, Trace elements solution and AOM1 medium were prepared as for Example 1. Energy sources were added to both media prior to autoclaving (0.5 g/L), except where noted, via syringe filter.
(§2) Unless otherwise stated, the following growth conditions were used for all experiments; Chloroflexus strains were grown aerobically at 60° C. in capped 100 mL serum bottles containing 50 mL of medium and 50 mL air headspace. No CO2 was amended to the headspace. Medium was sterilised via autoclaving (121° C., 20 min). Fifty μL of culture was inoculated into 50 mL of sterile medium. Stock Chloroflexus strains were maintained in liquid culture on mannose and on carboxymethylcellulose (CMC), and on phytagel-based solid medium.
(§3) Growth experiments to determine growth using different energy sources were conducted using the basal media, AOM1 or FS3V. No yeast extract (YE) or vitamins were added as growth supplements to either medium in these series of experiments. […] Both the YE and vitamin mix were also tested as sole energy sources.
(§4) Sole energy sources were added at a concentration of (0.5 g/L). […] Yeast extract (Becton Dickinson, 211929), sodium pyruvate (Sigma, P2256), sodium citrate (Ajax Finechem, A467,) and sodium acetate (Sigma, S2881), were also tested as sole energy sources, along with the alcohols methanol (Merck, 1.06018), ethanol (Merck, 1.00983), 1-propanol (Merck, 1.01024), 2-propanol (Merck, 1.01040), pentanol (Sigma, 138975) and butanol (Sigma, 1.01988). A vitamin mix was tested as a sole energy source. The vitamin mixture contained (in 100 mg): 0.8 mg folic acid; 8 mg vitamin B1; 4 mg vitamin B2; 1 mg niacin; 10 mg niacinamide; 15 mg pantothenate; 15 mg pyridoxine; 5 mg cobalamin; 5 mg biotin; 15 mg choline; 15 mg inositol; 7 mg para-amino benzoic acid and was tested at 10 and 100 mg/L.
(§5) Experiments were inoculated using stock cultures of T81, T12 and T26 grown in a corresponding medium with a corresponding energy source type. For example, inoculum for testing growth on a cellulose-based compound was grown in the corresponding medium with a cellulose-based compound as an energy source. All energy sources were added at a concentration of 0.5 g/L prior to autoclave sterilisation, except for D-N-acetylglucosamine, D-(−)-fructose, sodium acetate, sodium citrate, sodium pyruvate, methanol, ethanol, 1-propanol, 2-propanol, pentanol and butanol which were added via filter sterilisation (0.22 μm pore size membrane syringe filter). Tests were conducted in triplicate with a sterile control.

The test system of test [3] is Chloroflexus isolate T26. Described as above. Format: cell-based, thermophilic Chloroflexi-like bacteria. The note with it: aerobic, 60° C.; for Growth of T26 on sole energy source, AOM1: AOM1 medium (pH 6.5), energy source 0.5 g/L. Here is the method:
as §1, §2, §3, §4, §5

Test [4] has as its system Chloroflexus isolate T81. Described as above. Format: cell-based, thermophilic Chloroflexi-like bacteria. As to conditions: AOM1 (pH 6.5) and FS3V (pH 4.5). Here is the method:
as §1, §2, §3, §4, §5

Test [5] relates to Strain T81. As to the kind of experiment: Preference for alcohols over saccharides (fructose with ethanol, HPLC). Format: cell-based, thermophilic Chloroflexi-like bacteria. The note with it: FS3V, 60° C. Here is the method: Unless otherwise stated, sugars and/or alcohols were measured on a Dionex Ultimate 3000® High Performance Liquid Chromatography (HPLC) unit via refractive index (RI) on a Shodex RI-101 unit (Dionex, Utah, USA). The RI unit was run at 35° C. Samples (10 μL) were injected into a degassed water carrier solution running at 0.6 mL/min. Samples were separated on a Varian PL Hi-Plex H (8 μm, 300×7.7 mm) at 60° C. (Varian, Massachusetts, USA). Chromatographs were interpreted using Chromeleon® software (Dionex, Utah, USA). Strain […] was also tested for it's preference for alcohols over saccharides. […] Strain […] was inoculated and incubated statically at 60° C. One milliliter samples were taken daily and frozen for analysis using HPLC.

In test [6] the test system is Chloroflexus strains T81, T26 and T12. As to the kind of experiment: Growth on energy sources, statements for all three strains together. It is filed as cell-based, thermophilic Chloroflexi-like bacteria. The protocol: Growth experiments to determine growth using different energy sources were conducted using the basal media, AOM1 or FS3V. No yeast extract (YE) or vitamins were added as growth supplements to either medium in these series of experiments. Preliminary experiments have shown that they are not requited. Both the YE and vitamin mix were also tested as sole energy sources. Sole energy sources were added at a concentration of (0.5 g/L). […] A vitamin mix was tested as a sole energy source. The vitamin mixture contained (in 100 mg): 0.8 mg folic acid; 8 mg vitamin B1; 4 mg vitamin B2; 1 mg niacin; 10 mg niacinamide; 15 mg pantothenate; 15 mg pyridoxine; 5 mg cobalamin; 5 mg biotin; 15 mg choline; 15 mg inositol; 7 mg para-amino benzoic acid and was tested at 10 and 100 mg/L. Experiments were inoculated using stock cultures of […], T12 and […] grown in a corresponding medium with a corresponding energy source type. For example, inoculum for testing growth on a cellulose-based compound was grown in the corresponding medium with a cellulose-based compound as an energy source. […] Bacterial growth was determined visually as optical density (OD) measurements are not possible due to growth characteristics of the Chloroflexi isolates. […] Cellulose pulp degradation and sugar generation by Chloroflexus strain […] was assessed. […] Growth on the various pulp tablets was assessed visually.

The subject of test [7] is Chloroflexus isolate T12. As to conditions: FS3V, pH 4.5; ethanol as sole energy source. The protocol: All three Chloroflexus strains were tested for their ability to grow on elevated levels of ethanol. Ethanol at concentrations of 0.1%, 1.0%, 2.0%, 5.0%, 7.5%, and 10.0% (v/v) were asceptically added into FS3V medium following sterilisation as the sole energy source. Strains were then inoculated and incubated statically.

Where only a bound is given, the exact number is not on record here.

As to `CCCCCO` [1-pentanol], in test [1], the “Growth of T81 on alcohol as sole energy source, FS3V” value was “exception”. Further, the “Growth of T12 on alcohol as sole energy source, FS3V” value in test [2] was “exception”.

Take `O=C[C@@H](O)[C@H](O)[C@H](O)CO` [D-(+)-arabinose]: the “Growth of T81 on sole energy source, FS3V” value in test [1] is given as “grew”.

With `OC[C@H]1O[C@@H](O[C@H]2[C@H](O)[C@@H](O)[C@H](O)O[C@@H]2CO)[C@H](O)[C@@H](O)[C@@H]1O` [D-(+)-cellobiose], in test [3], the “Growth of T26 on sole energy source, AOM1” value (“Growth of T26 … AOM1” for short) is listed as “could grow”. In addition, the “Growth of T81 on both media” value in test [4] is “grew”.

For the compound `O=C[C@H](O)[C@@H](O)[C@@H](O)[C@H](O)CO` [D-(+)-galactose], the “Growth of T81 on both media” value in test [4] is given as “grew”.

Take `OC[C@H]1O[C@H](O[C@H]2[C@H](O)[C@@H](O)[C@H](O)O[C@@H]2CO)[C@H](O)[C@@H](O)[C@@H]1O` [D-(+)-maltose]: the “Growth of T81 on both media” value in test [4] was “grew”.

As for `O=C[C@@H](O)[C@@H](O)[C@H](O)[C@H](O)CO` [D-(+)-mannose], in test [2] (AOM1 medium adjusted to pH 4.5), the “Growth of Strain T12 in AOM1 medium adjusted to pH 4.5” value is “able to grow”. In addition, in test [4], the “Growth of T81 on both media” value was “grew”.

As to `OC[C@H]1O[C@H](O[C@H]2O[C@H](CO)[C@@H](O)[C@H](O)[C@H]2O)[C@H](O)[C@@H](O)[C@@H]1O` [D-(+)-trehalose], the “Growth of T81 on both media” value in test [4] is “grew”.

Take `O=C[C@H](O)[C@@H](O)[C@H](O)CO` [D-(+)-xylose]: in test [4], the “Growth of T81 on both media” value is listed as “grew”.

Take `O=C(CO)[C@@H](O)[C@H](O)[C@H](O)CO` [D-(−)-fructose]: the “Growth of T81 on both media” value in test [4] is recorded as “grew”. The “Consumption by T81 in presence of ethanol and fructose” value in test [5] (ethanol (0.05% w/v) and fructose (0.05% w/v)) is given as “consumed fructose in preference to ethanol”.

Take `O=C[C@H](O)[C@H](O)[C@H](O)CO` [D-(−)-ribose]: the “Growth of T81 on sole energy source, FS3V” value in test [1] is given as “grew”.

As for `CC(=O)N[C@H]1C(O)O[C@H](CO)[C@@H](O)[C@@H]1O` (stereo partly drawn) [D-N-acetylglucosamine], the “Growth of T26 … AOM1” value in test [3] (listed as D-N-actylglucosamine) was “could grow”.

In the case of `O=C[C@H](O)[C@@H](O)[C@H](O)[C@H](O)CO` [D-glucose], in test [4], the “Growth of T81 on both media” value was “grew”.

Consider `C[C@@H]1O[C@@H](O)[C@H](O)[C@H](O)[C@H]1O.O` [L-rhammnose monohydrate], for which, in test [3] (listed as L-rhamnose monohydrate, monohydrate), the “Growth of T26 … AOM1” value is listed as “could grow”. Besides, in test [4], the “Growth of T81 on both media” value was “grew”.

`CCO` [ethanol]: the “Ethanol concentrations all strains were able to grow on, up to (and including)” value in test [6] (FS3V, ethanol as sole energy source) is ≤ 2.0 % (v/v). Further, the “Ethanol concentrations Strain T12 was able to grow on, up to (and including)” value in test [7] is recorded as ≤ 5.0 % (v/v). Further, the “Effect of ethanol on growth of strain T81” value in test [5] (5% (w/v) ethanol and 0.05% (w/v) fructose) is “inhibited the growth”.

Consider `O=C[C@H](O)[C@@H](O)[C@@H](O)[C@H](O)C(=O)O` [galacturonic acid], for which the “Support of growth / energy for the isolates T81, T26 and T12” value in test [6] (sole energy sources, AOM1 or FS3V) is “did not support growth”.

For the compound `CCCO` [propanol], the “Growth of T81 on alcohol as sole energy source, FS3V” value in test [1] is reported as “best growth”. For the same compound, the “Growth of T26 on alcohol as sole energy source, FS3V” value in test [3] (FS3V, alcohol 0.05% v/v) was “best growth”.

Take `OC[C@H]1O[C@H](OC[C@H]2O[C@H](O[C@]3(CO)O[C@H](CO)[C@@H](O)[C@@H]3O)[C@H](O)[C@@H](O)[C@@H]2O)[C@H](O)[C@@H](O)[C@H]1O` [raffinose]: in test [4], the “Growth of T81 on both media” value is listed as “grew”.

Consider `OC[C@H]1O[C@@](CO)(O[C@H]2O[C@H](CO)[C@@H](O)[C@H](O)[C@H]2O)[C@@H](O)[C@@H]1O` [sucrose], for which, in test [4], the “Growth of T81 on both media” value is given as “grew”.

Regarding butanol, in test [2], the “Growth of T12 on alcohol as sole energy source, FS3V” value was “exception”.
